Source: patent publication US11903386B2, “Strigolactone analogs and their usage in plant control” (King Abdullah University of Science and Technology, priority 2016, dated 2024)
Where two headings read alike, the source gives them in different places.

Experiments:
ShHTL7 = biological target: T1, ShHTL7 (Striga hermonthica, UniProt A0A0M3PNA2); assay: Intrinsic tryptophan fluorescence assay; format: binding; settings: ShHTL7 10 μM, mean±SE (n=3); read-out: Kd, affinity of ShHTL7
T1 sequence (A0A0M3PNA2 1-271): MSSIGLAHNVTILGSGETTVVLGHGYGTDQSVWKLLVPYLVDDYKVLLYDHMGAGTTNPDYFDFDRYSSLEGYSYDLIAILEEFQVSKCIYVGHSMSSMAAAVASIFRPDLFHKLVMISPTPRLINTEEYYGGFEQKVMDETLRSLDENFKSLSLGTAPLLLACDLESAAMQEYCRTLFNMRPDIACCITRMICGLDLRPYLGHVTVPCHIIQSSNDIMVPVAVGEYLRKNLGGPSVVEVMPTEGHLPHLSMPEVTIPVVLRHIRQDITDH
Excerpt: (§1) Striga hermonthica ShHTL7 cDNA, GenBank accession KR013127 was kindly provided by Prof. Tadao Asami (The University of Tokyo, Japan). Arabidopsis thaliana D14 (AtD14) cDNA, GenBank accession AY097402 was synthesized and cloned into pUC57 (GenScript). ShHTL7 and OsD14 cDNAs were amplified by RT-PCR using the primers shown in Table 2, digested with BamHI and XhoI, and ligated into BamHI/XhoI digested pGEX-6P-1 expression vector (GE Healthcare). Integrity of plasmids was confirmed by sequencing (KAUST Bioscience Core Lab). The plasmids were then transformed into E. coli BL21 (DE3) cells. The cells were grown in LB broth containing ampicillin ([…]), incubated at 37° C. until OD600 of 0.6 and induced with 0.1 mM isopropyl-β-D-thiogalactopyranoside (IPTG) at 16° C. for 16 h. Harvested cells were re-suspended in lysis buffer: 50 mM Tris-HCl (pH 8.0), 200 mM NaCl, 0.5% Tween-20 and 2 mM dithiothreitol (DTT). After sonication on ice for 10 mins, the lysate was centrifuged at 25,000 rpm for 30 min at 4° C. Supernatant was allowed to bind to glutathione-sepharose beads (GE Healthcare) for 2 h at 4° C., washed 3 times with buffer (50 mM Tris-HCl (pH 8.0), 200 mM NaCl, 2 mM DTT), and eluted by cleaving GST moiety with PreScission™ Protease (GE Healthcare) at 4° C. overnight. Eluted protein was further purified by gel filtration using HiLoad 16/60 Superdex200 prep grade column (GE Healthcare) on an AKTA prime system (GE Healthcare) in gel filtration buffer (10 mM HEPES pH 7.5, 50 mM KCl and 2 mM DTT). Protein eluted as a sharp single peak and purity was judged by 4-15% SDS-PAGE (Bio-Rad). Purified protein was concentrated using an Amicon 10K filter unit (Merck Millipore) and stored at −80° C. until use. Similar expression and purification protocol was followed for OsD14 protein, except that OsD14 was eluted from Glutathione resins using 0.2 mM reduced Glutathione (Sigma) without cutting GST tag.
ShHTL7 tryptophans were excited at 280 nm and […] emission intensity was measured at 333 nm. ShHTL7 (10 μM) was incubated at various dilutions (0.2, 0.4, 0.8, 1.6, 3.12, 6.25, 12.5, 25 and 50 μM) of GR24 and MPs for 30 minutes at room temperature before measurement. Each concentration point was measured in triplicates. Emitted fluorescence was monitored using spectraMaxi3 (Molecular Devices) plate reader in 96-wells black plates. Changes in tryptophan fluorescence intensity occur due to conformational changes in protein when it is bound to ligand; differences in fluorescence intensity were recorded and analyzed. Data were normalized and dissociation coefficient (Kd) values were calculated by fitting to a binding saturation single-site model with GraphPad (PRISM 6).

OsD14 [1] = biological target: T2, OsD14 (Oryza sativa subsp. japonica, UniProt Q10QA5); assay: In vitro hydrolysis assay with OsD14 (HPLC); format: biochemical, rice; settings: 10 μM substrate, 37° C.
T2 construct: made in house; host or cells: E. coli BL21 (DE3)
T2 sequence (Q10QA5 1-318): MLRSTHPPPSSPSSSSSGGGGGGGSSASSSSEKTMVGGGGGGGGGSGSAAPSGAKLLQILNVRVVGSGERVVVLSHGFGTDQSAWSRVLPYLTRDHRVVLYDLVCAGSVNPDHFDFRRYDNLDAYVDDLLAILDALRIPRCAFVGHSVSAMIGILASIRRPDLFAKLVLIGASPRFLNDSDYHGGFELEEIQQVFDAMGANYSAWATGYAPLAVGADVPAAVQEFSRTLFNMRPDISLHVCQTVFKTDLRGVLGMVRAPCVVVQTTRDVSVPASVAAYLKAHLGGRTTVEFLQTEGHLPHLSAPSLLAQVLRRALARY
Excerpt: Striga hermonthica ShHTL7 cDNA, GenBank accession KR013127 was kindly provided by Prof. Tadao Asami (The University of Tokyo, Japan). Arabidopsis thaliana D14 (AtD14) cDNA, GenBank accession AY097402 was synthesized and cloned into pUC57 (GenScript). ShHTL7 and OsD14 cDNAs were amplified by RT-PCR using the primers shown in Table 2, digested with BamHI and XhoI, and ligated into BamHI/XhoI digested pGEX-6P-1 expression vector (GE Healthcare). Integrity of plasmids was confirmed by sequencing (KAUST Bioscience Core Lab). The plasmids were then transformed into E. coli BL21 (DE3) cells. The cells were grown in LB broth containing ampicillin ([…]), incubated at 37° C. until OD600 of 0.6 and induced with 0.1 mM isopropyl-β-D-thiogalactopyranoside (IPTG) at 16° C. for 16 h. […]
The hydrolysis of GR24 and MPs by ShHTL7/OsD14 was performed in a total volume of 0.5 ml of PBS buffer containing 10 μM of substrate. […] Hydrolysis of substrates was monitored by HPLC analysis using an Zorbax Eclipse Plus C18 column (3.5 μm, 2.1×150 mm), eluted by a gradient from 10% to 90% acetonitrile in water within 15 min and keeping final condition for 4 min. […] Eluted compounds were detected using a Diode Array Detector. Amounts of remaining substrates were determined by calculating corresponding peaks, in comparison to that of internal standard.

OsD14 [2] = biological target: T2, OsD14; assay: YLG (Yoshimulactone Green) competitive hydrolysis assay; format: biochemical, rice
Excerpt: as §1
In vitro YLG hydrolysis assays were performed as described by Tsuchiya et al., 2015. Hydrolysis assays were carried out using 0.15 μM of recombinant protein OsD14 in a reaction buffer (100 mM PBS buffer, pH 7.3) with 0.1% dimethylsulfoxide (DMSO) at a 300 μl volume on a 96-well black plate (Thermo). For competitive assays, (±) GR24 and (±) MPs at range between 0.03 to 10 μM (or 100 μM) were co-incubated with 0.3 μM of YLG and reacted at 30° C. incubator for 15 min. Fluorescent intensity was measured with excitation at 485 nm and detected at 535 nm. IC50 values were calculated online (http://www.ic50.tk/index.html). Later, values were converted to the existing conditions when treated by 1.0 μM of recombinant proteins.

Striga = assay: Trial in Burkina Faso, wooden boxes with artificially infested soil and pearl millet host; format: in vivo; settings: 1×1 m^2 boxes, artificially infested soil, pearl millet host
Description: Very recently, the activity of MP1 was also evaluated in a trial conducted in Burkina Faso, in which 1×1 m^2 wooden boxes were used which were filled with artificially infested soil and pearl millet as a host.

COC(=O)/C(=C/OC1C=C(C)C(=O)O1)c1ccccc1 (racemic) [MP3, (E)-methyl 3-(4-methyl-5-oxo-2,5-dihydrofuran-2-yloxy)-2-phenylacrylate]
Kd (ShHTL7): 10.1 ± 5.1 µM | Hydrolysis rate by OsD14 (OsD14 [1]): finally MP3 | IC50 (OsD14 [2]): 10.1 ± 2.94 µM

COC(=O)/C(=C/OC1C=C(C)C(=O)O1)c1ccc([N+](=O)[O-])cc1 (racemic) [MP1, (E)-methyl 3-(4-methyl-5-oxo-2,5-dihydrofuran-2-yloxy)-2-(4-nitrophenyl)acrylate]
Kd (ShHTL7): 0.72 ± 0.55 µM | Germination activity compared with GR24 (Striga): significantly higher germination activity than GR24 | Hydrolysis rate by OsD14 (OsD14 [1]): highest hydrolysis rate | IC50 (OsD14 [2]; with SE (n=3), read-out: IC50, competitive inhibition of OsD14 mediated YLG hydrolysis): 2.41 ± 0.175 µM

COC(=O)/C(=C/OC1C=C(C)C(=O)O1)c1ccc(Cl)cc1 (stereo not drawn) [MP7]
Kd (ShHTL7): 1.15 ± 0.31 µM | IC50 (OsD14 [2]): 4.46 ± 0.8 µM
